One experiment concerns HBV replication in HepG2.2.15 cells. As to the kind of experiment: HBV inhibition assay in HepG2.2.15 cells (extracellular HBV DNA by qPCR). It counts as cell-based, Hepatitis B virus. The settings on record: Hepatitis B virus, HepG2.2.15, 120 h, five days after compound treatment, extracellular HBV DNA in culture supernatant by qPCR, read-out: EC50 (effective compound concentration at which HBV replication was inhibited by 50%). An excerpt: HepG2.2.15 is a stably-transfected cell line containing the HBV genome. It is derived from the hepatoblastoma cell line Hep G2 (American Type Culture Collection, ATCC® HB-8065™) by the published procedures described in reference: M A Selles et al. Proc. Natl. Acad. Sci. USA 1987, 84, 1005-1009. The cell line was maintained in Dulbecco's modified Eagle's medium and nutrient mixture F-12 (DMEM/F-12, Gibco, Cat. #: 11320-033) supplemented with 10% fetal bovine serum (Gibco, Cat. #:10099-141), 100 U/mL penicillin, 100 μg/mL streptomycin (Gibco, Cat. #:15140-122), and 0.3 mg/mL of G418 Sulfate (Gibco, Cat. #: 10131-027).
HepG2.2.15 cells were seeded into 96-well plates at a density of 3×10^4 cells per well in culture media of 100 μL DMEM/F-12 supplemented with 2.5% fetal bovine serum, 100 U/mL penicillin, 100 μg/mL streptomycin and cultured overnight at 37° C. The test compounds were serially half-log diluted in DMSO, then diluted 100 times in culture media. 100 μL culture media containing diluted compounds were added into the plates to reach 0.5% final concentration of DMSO in every well. Five days after compound treatment, culture supernatant was collected for further analysis.
For quantitative PCR detection of extracellular HBV DNA, culture supernatant was processed by 500 μg/mL Proteinase K (Sigma, Cat. #:P2308) digestion at 50° C. for 1 hour. After heat inactivation of the enzyme at 95° C. for 15 minutes, the samples were subjected to HBV DNA quantification by qPCR. The effective compound concentration at which HBV replication was inhibited by 50% (EC50) was determined.
(Quantitative PCR measures a nucleic acid by following its amplification.)
For `C[C@H]1Cn2ncc(N3CC4COCCN4S3(=O)=O)c2CN1C(=O)Nc1cc(F)c(F)c(F)c1` (stereo partly drawn) [Example 12, (6S)-3-(1,1-dioxo-3a,4,6,7-tetrahydro-3H-[1,2,5]thiadiazolo[3,2-c][1,4]oxazin-2-yl)-6-methyl-N-(3,4,5-trifluorophenyl)-6,7-dihydro-4H-pyrazolo[1,5-a]pyrazine-5-carboxamide], the EC50 is 40 nM.
On to `C[C@H]1Cn2ncc(N3CCCS3(=O)=O)c2CN1C(=O)Nc1ccnc(Cl)c1` [Example 2, (6S)—N-(2-chloro-4-pyridyl)-3-(1,1-dioxo-1,2-thiazolidin-2-yl)-6-methyl-6,7-dihydro-4H-pyrazolo[1,5-a]pyrazine-5-carboxamide], for which the EC50 was 79 nM.
Consider `C[C@H]1Cn2ncc(N3CCS3(=O)=O)c2CN1C(=O)Nc1cc(F)c(F)c(F)c1` [Example 25, (6S)-3-(1,1-dioxothiazetidin-2-yl)-6-methyl-N-(3,4,5-trifluorophenyl)-6,7-dihydro-4H-pyrazolo[1,5-a]pyrazine-5-carboxamide], for which the EC50 was found to be 140 nM.
As to `C[C@H]1Cn2ncc(N3CCCS3(=O)=O)c2CN1C(=O)Nc1ccc(F)c(C#N)c1` [Example 5, (6S)—N-(3-cyano-4-fluoro-phenyl)-3-(1,1-dioxo-1,2-thiazolidin-2-yl)-6-methyl-6,7-dihydro-4H-pyrazolo[1,5-a]pyrazine-5-carboxamide], the EC50 is 14 nM.
As to `Cc1cc(NC(=O)N2Cc3c(N4CCCS4(=O)=O)cnn3C[C@@H]2C)ccc1F` [Example 4, (6S)-3-(1,1-dioxo-1,2-thiazolidin-2-yl)-N-(4-fluoro-3-methyl-phenyl)-6-methyl-6,7-dihydro-4H-pyrazolo[1,5-a]pyrazine-5-carboxamide], the EC50 worked out at 6 nM.
Take `CC1CCS(=O)(=O)N1c1cnn2c1CN(C(=O)Nc1cc(F)c(F)c(F)c1)[C@@H](C)C2` (stereo partly drawn) [Example 16, (6S)-6-methyl-3-(3-methyl-1,1-dioxo-1,2-thiazolidin-2-yl)-N-(3,4,5-trifluorophenyl)-6,7-dihydro-4H-pyrazolo[1,5-a]pyrazine-5-carboxamide]: the EC50 was 9 nM.
Regarding `CC(=O)N1CCN(c2cnn3c2CN(C(=O)Nc2cc(F)c(F)c(F)c2)[C@@H](C)C3)S(=O)(=O)C1` [Example 15, (6S)-3-(5-acetyl-1,1-dioxo-1,2,5-thiadiazinan-2-yl)-6-methyl-N-(3,4,5-trifluorophenyl)-6,7-dihydro-4H-pyrazolo[1,5-a]pyrazine-5-carboxamide], the EC50 is 26 nM.
Take `C[C@H]1Cn2ncc(N3CC(O)CS3(=O)=O)c2CN1C(=O)Nc1cc(F)c(F)c(F)c1` (stereo partly drawn) [Example 18, (6S)-3-(4-hydroxy-1,1-dioxo-1,2-thiazolidin-2-yl)-6-methyl-N-(3,4,5-trifluorophenyl)-6,7-dihydro-4H-pyrazolo[1,5-a]pyrazine-5-carboxamide]: the EC50 is 12 nM.
The same measure, in the same setting: in the case of `COC1CS(=O)(=O)N(c2cnn3c2CN(C(=O)Nc2ccnc(C(F)F)c2)[C@@H](C)C3)C1C` (stereo partly drawn) [Example 32-1, (6S)—N-[2-(difluoromethyl)-4-pyridyl]-3-(4-methoxy-3-methyl-1,1-dioxo-1,2-thiazolidin-2-yl)-6-methyl-6,7-dihydro-4H-pyrazolo[1,5-a]pyrazine-5-carboxamide] it was 170 nM.
As to `C[C@H]1Cn2ncc(N3CCCS3(=O)=O)c2CN1C(=O)Nc1ccc2ncsc2c1` [Example 9, (6S)—N-(1,3-benzothiazol-6-yl)-3-(1,1-dioxo-1,2-thiazolidin-2-yl)-6-methyl-6,7-dihydro-4H-pyrazolo[1,5-a]pyrazine-5-carboxamide], the EC50 is 260 nM.
`C[C@H]1Cn2ncc(N3CCCS3(=O)=O)c2CN1C(=O)NCc1ccccc1` [Example 11, (6S)—N-benzyl-3-(1,1-dioxo-1,2-thiazolidin-2-yl)-6-methyl-6,7-dihydro-4H-pyrazolo[1,5-a]pyrazine-5-carboxamide]: the EC50 was 110 nM.
As to `C[C@H]1Cn2ncc(N3CCN(C(=O)OCc4ccccc4)CS3(=O)=O)c2CN1C(=O)Nc1cc(F)c(F)c(F)c1` [Example 13, Benzyl 2-[(6S)-6-methyl-5-[(3,4,5-trifluorophenyl)carbamoyl]-6,7-dihydro-4H-pyrazolo[1,5-a]pyrazin-3-yl]-1,1-dioxo-1,2,5-thiadiazinane-5-carboxylate], the EC50 turned out to be 52 nM.
`C[C@H]1Cn2ncc(N3CCCS3(=O)=O)c2CN1C(=O)NCc1ccsc1` [Example 34, (6S)-3-(1,1-dioxo-1,2-thiazolidin-2-yl)-6-methyl-N-(3-thienylmethyl)-6,7-dihydro-4H-pyrazolo[1,5-a]pyrazine-5-carboxamide]: the EC50 is 99 nM.
Consider `C[C@H]1Cn2ncc(N3CCN(C)S3(=O)=O)c2CN1C(=O)Nc1cc(F)c(F)c(F)c1` [Example 20, (6S)-6-methyl-3-(5-methyl-1,1-dioxo-1,2,5-thiadiazolidin-2-yl)-N-(3,4,5-trifluorophenyl)-6,7-dihydro-4H-pyrazolo[1,5-a]pyrazine-5-carboxamide], for which the EC50 was determined as 17 nM.
With `C[C@H]1Cn2ncc(N3[C@@H](C)CNS3(=O)=O)c2CN1C(=O)Nc1cc(F)c(F)c(F)c1` [Example 22, (6S)-6-methyl-3-[(3S)-3-methyl-1,1-dioxo-1,2,5-thiadiazolidin-2-yl]-N-(3,4,5-trifluorophenyl)-6,7-dihydro-4H-pyrazolo[1,5-a]pyrazine-5-carboxamide], the EC50 was 27 nM.
For `CC1C(O)CS(=O)(=O)N1c1cnn2c1CN(C(=O)Nc1cc(F)c(F)c(F)c1)[C@@H](C)C2` (stereo partly drawn) [Example 28-1, (6S)-3-(4-hydroxy-3-methyl-1,1-dioxo-1,2-thiazolidin-2-yl)-6-methyl-N-(3,4,5-trifluorophenyl)-6,7-dihydro-4H-pyrazolo[1,5-a]pyrazine-5-carboxamide], the EC50 stood at 21 nM.
As to `C[C@H]1Cn2ncc(N3CCCS3(=O)=O)c2CN1C(=O)Nc1ccc(F)c(C(F)(F)F)c1` [Example 7, (6S)-3-(1,1-dioxo-1,2-thiazolidin-2-yl)-N-[4-fluoro-3-(trifluoromethyl)phenyl]-6-methyl-6,7-dihydro-4H-pyrazolo[1,5-a]pyrazine-5-carboxamide], the EC50 is 9.8 nM.
With `C[C@H]1Cn2ncc(N3CCCS3(=O)=O)c2CN1C(=O)Nc1ccsc1` [Example 10, (6S)-3-(1,1-dioxo-1,2-thiazolidin-2-yl)-6-methyl-N-(3-thienyl)-6,7-dihydro-4H-pyrazolo[1,5-a]pyrazine-5-carboxamide], the EC50 was found to be 570 nM.

The experiment is the same for the next values; noted with them: five days after compound treatment, extracellular HBV DNA in culture supernatant by qPCR, read-out: EC50 (effective compound concentration at which HBV replication was inhibited by 50%).
For the compound `CC1Cn2nnc(N3CCCS3(=O)=O)c2CN1C(=O)Nc1cc(F)c(F)c(F)c1` (single isomer, unassigned) [Example 33-1, 3-(1,1-dioxo-1,2-thiazolidin-2-yl)-6-methyl-N-(3,4,5-trifluorophenyl)-6,7-dihydro-4H-triazolo[1,5-a]pyrazine-5-carboxamide], the EC50 was determined as 24 nM.
Take `CC1C(O)CS(=O)(=O)N1c1cnn2c1CN(C(=O)Nc1cc(F)c(F)c(F)c1)[C@@H](C)C2` (stereo partly drawn) [Example 28-2, (6S)-3-(4-hydroxy-3-methyl-1,1-dioxo-1,2-thiazolidin-2-yl)-6-methyl-N-(3,4,5-trifluorophenyl)-6,7-dihydro-4H-pyrazolo[1,5-a]pyrazine-5-carboxamide]: the EC50 is 18 nM.
As for `CC1Cn2nnc(N3CCCS3(=O)=O)c2CN1C(=O)Nc1cc(F)c(F)c(F)c1` (single isomer, unassigned) [Example 33-2, 3-(1,1-dioxo-1,2-thiazolidin-2-yl)-6-methyl-N-(3,4,5-trifluorophenyl)-6,7-dihydro-4H-triazolo[1,5-a]pyrazine-5-carboxamide], the EC50 was 410 nM.

Source of the values: US10683299B2, “Pyrazolopyrazine and triazolopyrazine compounds for the treatment of infectious diseases” (Hoffmann-La Roche Inc., priority 2017, dated 2020).
